Reference: ChEMBL document CHEMBL1201862, “PubChem BioAssay data set” (2004)
The source made the active and inactive calls.

Experiments:
Protein skinhead-1 = molecular target: T1, Protein skinhead-1 (Caenorhabditis elegans, UniProt P34707); type: functional
T1 sequence (P34707 whole entry): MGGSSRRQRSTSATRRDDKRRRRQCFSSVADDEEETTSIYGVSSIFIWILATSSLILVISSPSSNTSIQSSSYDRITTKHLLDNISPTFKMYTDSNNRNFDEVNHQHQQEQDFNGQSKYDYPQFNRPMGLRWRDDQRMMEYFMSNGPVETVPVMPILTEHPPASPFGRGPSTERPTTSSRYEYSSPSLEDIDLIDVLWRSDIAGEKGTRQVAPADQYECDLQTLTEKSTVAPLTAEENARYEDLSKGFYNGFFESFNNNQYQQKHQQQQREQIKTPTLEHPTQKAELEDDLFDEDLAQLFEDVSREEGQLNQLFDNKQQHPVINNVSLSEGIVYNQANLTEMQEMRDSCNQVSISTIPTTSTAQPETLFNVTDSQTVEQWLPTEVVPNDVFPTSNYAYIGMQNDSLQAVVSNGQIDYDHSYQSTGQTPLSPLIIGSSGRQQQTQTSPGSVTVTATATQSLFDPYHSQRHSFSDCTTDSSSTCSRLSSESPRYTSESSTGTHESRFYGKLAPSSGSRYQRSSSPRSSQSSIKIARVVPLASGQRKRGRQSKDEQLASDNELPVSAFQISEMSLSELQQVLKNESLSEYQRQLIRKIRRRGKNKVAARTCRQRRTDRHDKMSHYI

[1] = molecular target: T2, Long-chain-fatty-acid--AMP ligase FadD28 (Mycobacterium tuberculosis, UniProt P9WQ59); test: Fluorescence polarization aasay to screen for inhibitors that compete for the binding of FadD28 to a bisubstrate Measured in Biochemical System Using Plate Reader - 2147-01_Inhibitor_Dose_CherryPick_Activity.; type: functional, Mycobacterium tuberculosis H37Rv
T2 sequence (P9WQ59 whole entry): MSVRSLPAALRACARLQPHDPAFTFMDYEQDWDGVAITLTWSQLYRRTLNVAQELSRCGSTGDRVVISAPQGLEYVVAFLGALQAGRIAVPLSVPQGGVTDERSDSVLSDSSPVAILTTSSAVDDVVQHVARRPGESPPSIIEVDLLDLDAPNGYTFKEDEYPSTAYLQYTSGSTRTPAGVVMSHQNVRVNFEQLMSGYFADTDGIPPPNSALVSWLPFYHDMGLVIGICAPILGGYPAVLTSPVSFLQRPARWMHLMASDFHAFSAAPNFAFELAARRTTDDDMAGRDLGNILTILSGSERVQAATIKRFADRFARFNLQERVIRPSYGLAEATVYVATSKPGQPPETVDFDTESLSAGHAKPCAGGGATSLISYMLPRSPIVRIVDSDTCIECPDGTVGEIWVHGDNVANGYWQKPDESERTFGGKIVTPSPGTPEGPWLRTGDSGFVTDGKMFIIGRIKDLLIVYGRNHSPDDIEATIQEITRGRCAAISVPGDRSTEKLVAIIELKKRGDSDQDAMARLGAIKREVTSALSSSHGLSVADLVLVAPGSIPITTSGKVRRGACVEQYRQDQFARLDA

Fibrinogen beta chain [2] = molecular target: T3, Fibrinogen beta chain (Homo sapiens, UniProt P02675); test: Fluorescence polarization-based biochemical high throughput dose response assay to identify inhibitors that disrupt the binding of a cyclic peptide (Tn6) to the fibrin proteolytic product D-Dimer and fragment E complex [DD(E )].
T3 sequence (P02675 whole entry): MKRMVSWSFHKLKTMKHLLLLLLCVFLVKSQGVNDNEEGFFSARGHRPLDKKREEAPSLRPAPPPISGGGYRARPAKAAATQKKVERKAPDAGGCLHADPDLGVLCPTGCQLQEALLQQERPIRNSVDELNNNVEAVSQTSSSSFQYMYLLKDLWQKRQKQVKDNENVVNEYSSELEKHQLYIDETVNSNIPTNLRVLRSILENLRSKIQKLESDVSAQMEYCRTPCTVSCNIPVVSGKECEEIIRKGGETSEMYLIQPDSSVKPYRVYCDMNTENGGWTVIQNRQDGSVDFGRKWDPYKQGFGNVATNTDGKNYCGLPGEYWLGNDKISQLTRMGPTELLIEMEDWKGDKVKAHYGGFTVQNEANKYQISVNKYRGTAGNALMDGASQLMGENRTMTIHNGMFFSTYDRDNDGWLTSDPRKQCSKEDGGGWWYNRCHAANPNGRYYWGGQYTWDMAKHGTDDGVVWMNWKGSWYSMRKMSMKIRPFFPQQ

Fibrinogen beta chain [3] = molecular target: T3, Fibrinogen beta chain; test: Fluorescence polarization-based biochemical high throughput dose response assay to identify inhibitors that disrupt the binding of a cyclic peptide (Tn7) to the fibrin proteolytic product D-Dimer and fragment E complex [DD(E )].
[4] = Trypanosoma cruzi growth suppression in host cells – NIH3T3 host cells, beta-gal luminescence, confirmation (AID 2044); type: functional, cell-based;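 further: intracellular parasites grown in NIH/3T3 mouse fibroblasts as host cells; luminescent beta-galactosidase reporter signal from transgenic T. cruzi replicating inside host cells; inhibitors lower the luminescence signal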
[5] = NIH3T3 cell viability loss – ATP luminescence, mouse fibroblasts, counter-screen, dose response (AID 2010); type: functional, cell-based;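 further: cells exposed to compound for about 90 hours before reading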
[6] = THP-1 cell cytotoxicity, dose response, cytotoxicity control for non-replicating M. tuberculosis project (AID 489025); type: functional
[7] = Vero E6 cell cytotoxicity, dose response, cytotoxicity control for non-replicating M. tuberculosis project, secondary assay (AID 492998); type: functional, VeroE6; conditions: Vero C1008
[8] = molecular target: T4, Microphthalmia-associated transcription factor (Homo sapiens, UniProt O75030); test: reducers of TRPM1 reporter luminescence, concentration series – cell-based, SK-MEL-5, cherry-picked, set 3, MITF inhibitor project, dose response (AID 493073); type: functional;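 further: SK-MEL-5 melanoma cells with luciferase driven by the MITF target TRPM1 promoter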
T4 sequence (O75030 whole entry): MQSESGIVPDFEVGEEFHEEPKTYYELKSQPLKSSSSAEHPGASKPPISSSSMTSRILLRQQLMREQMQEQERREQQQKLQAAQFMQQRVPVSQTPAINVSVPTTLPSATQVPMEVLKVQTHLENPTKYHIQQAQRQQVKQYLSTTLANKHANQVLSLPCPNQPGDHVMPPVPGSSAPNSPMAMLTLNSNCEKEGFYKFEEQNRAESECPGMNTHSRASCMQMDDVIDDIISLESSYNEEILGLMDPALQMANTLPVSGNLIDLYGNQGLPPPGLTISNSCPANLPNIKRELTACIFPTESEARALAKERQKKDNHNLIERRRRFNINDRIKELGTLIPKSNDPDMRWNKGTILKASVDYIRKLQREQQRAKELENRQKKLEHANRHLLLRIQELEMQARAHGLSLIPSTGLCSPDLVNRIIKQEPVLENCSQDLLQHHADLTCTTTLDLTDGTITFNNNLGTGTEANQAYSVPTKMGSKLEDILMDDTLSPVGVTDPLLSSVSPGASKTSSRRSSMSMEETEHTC

[9] = cytotoxicity in MITF-independent A375 cells – cell-based, CellTiter-Glo luminescence, dry powder, set 4, counter-screen for MITF inhibitor project, dose response (AID 624364); type: functional; conditions: A-375;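 further: A375 melanoma cells are MITF independent so this is a counter screen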
[10] = viability loss in MITF-independent A375 cells – cell-based, CellTiter-Glo luminescence, dry powder, set 2, counter-screen for MITF inhibitor project, dose response (AID 624489); type: functional; conditions: A-375;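 further: actives are compounds lowering A375 viability meaning general cytotoxicity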
fMet-Leu-Phe receptor = fMet-Leu-Phe receptor (Homo sapiens, UniProt P21462); test: formyl peptide receptor binders – dose response (AID 519); type: functional
Sequence of fMet-Leu-Phe receptor (P21462 whole entry): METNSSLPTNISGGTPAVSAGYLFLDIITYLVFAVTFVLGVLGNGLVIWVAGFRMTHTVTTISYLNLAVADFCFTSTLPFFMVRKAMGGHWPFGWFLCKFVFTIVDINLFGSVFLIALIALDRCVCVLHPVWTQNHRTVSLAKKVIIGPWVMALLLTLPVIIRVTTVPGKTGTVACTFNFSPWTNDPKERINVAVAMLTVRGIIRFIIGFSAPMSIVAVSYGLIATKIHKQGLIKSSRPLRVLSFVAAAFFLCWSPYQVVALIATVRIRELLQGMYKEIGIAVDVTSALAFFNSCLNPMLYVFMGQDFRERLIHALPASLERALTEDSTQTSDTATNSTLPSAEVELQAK

[11] = viability loss in THP-1 monocytes – THP-1 cells, cytotoxicity control for Vif-APOBEC3G degradation inhibitor project, dose response (AID 1117359); type: functional; conditions: THP-1
[12] = HIV-1 Vif–A3G interaction blockers – biochemical, TR-FRET, GST-Vif 1-94, biotin-A3G peptide, dose response retest, primary screen (AID 1117319); type: functional;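 further: TR-FRET signal of purified GST-Vif binding a biotinylated A3G peptide; inhibitors lower the FRET signal by blocking Vif and A3G binding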
[13] = potency of ADAM10 substrate cleavage blockers – biochemical, QFRET, dose response (AID 743254);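 further: ADAM10 enzyme with the DM2 quenched FRET peptide as substrate; EDANS fluorescence gain as the protease cuts the substrate; inhibitor potency against ADAM10 proteolytic activity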
[14] = molecular target: Disintegrin and metalloproteinase domain-containing protein 17 (Homo sapiens, UniProt P78536); test: inhibition of ADAM17 substrate cleavage – biochemical, quenched FRET substrate, counter-screen for ADAM10 exosite inhibitor project, dose response (AID 743253)
Sequence of Disintegrin and metalloproteinase domain-containing protein 17 (P78536 whole entry, the tested form may be a part): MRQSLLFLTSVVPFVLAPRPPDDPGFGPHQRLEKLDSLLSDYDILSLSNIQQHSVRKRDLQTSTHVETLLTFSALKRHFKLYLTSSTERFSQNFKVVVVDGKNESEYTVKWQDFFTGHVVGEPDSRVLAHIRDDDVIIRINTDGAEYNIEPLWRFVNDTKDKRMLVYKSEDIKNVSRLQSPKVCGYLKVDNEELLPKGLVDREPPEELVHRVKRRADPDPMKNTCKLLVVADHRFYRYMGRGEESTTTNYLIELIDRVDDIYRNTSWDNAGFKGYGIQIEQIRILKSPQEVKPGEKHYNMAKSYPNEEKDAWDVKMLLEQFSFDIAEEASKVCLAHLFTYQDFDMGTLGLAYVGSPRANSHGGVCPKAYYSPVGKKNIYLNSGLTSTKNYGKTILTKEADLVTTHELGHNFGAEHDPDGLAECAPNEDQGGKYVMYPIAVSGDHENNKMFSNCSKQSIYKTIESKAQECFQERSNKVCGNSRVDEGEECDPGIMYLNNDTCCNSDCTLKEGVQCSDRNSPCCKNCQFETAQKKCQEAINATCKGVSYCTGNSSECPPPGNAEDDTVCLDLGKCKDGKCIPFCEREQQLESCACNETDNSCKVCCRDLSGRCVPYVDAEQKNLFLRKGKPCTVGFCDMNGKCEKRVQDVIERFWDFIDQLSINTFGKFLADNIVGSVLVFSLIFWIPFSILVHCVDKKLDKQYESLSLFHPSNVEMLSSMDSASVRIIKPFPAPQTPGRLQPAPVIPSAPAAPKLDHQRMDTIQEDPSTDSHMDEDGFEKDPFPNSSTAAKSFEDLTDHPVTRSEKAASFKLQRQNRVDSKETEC

Paired box protein Pax-8 = Paired box protein Pax-8 (Homo sapiens, UniProt Q06710); test: PAX8 transcriptional activity inhibition in RMG-I – RMG-I cells, luciferase, cherry-pick, dose response (AID 687027); type: functional, cell-based;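 further: luciferase reporter driven by Pax8 target thyroperoxidase promoter measured by SteadyGlo luminescence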
Sequence of Paired box protein Pax-8 (Q06710 whole entry): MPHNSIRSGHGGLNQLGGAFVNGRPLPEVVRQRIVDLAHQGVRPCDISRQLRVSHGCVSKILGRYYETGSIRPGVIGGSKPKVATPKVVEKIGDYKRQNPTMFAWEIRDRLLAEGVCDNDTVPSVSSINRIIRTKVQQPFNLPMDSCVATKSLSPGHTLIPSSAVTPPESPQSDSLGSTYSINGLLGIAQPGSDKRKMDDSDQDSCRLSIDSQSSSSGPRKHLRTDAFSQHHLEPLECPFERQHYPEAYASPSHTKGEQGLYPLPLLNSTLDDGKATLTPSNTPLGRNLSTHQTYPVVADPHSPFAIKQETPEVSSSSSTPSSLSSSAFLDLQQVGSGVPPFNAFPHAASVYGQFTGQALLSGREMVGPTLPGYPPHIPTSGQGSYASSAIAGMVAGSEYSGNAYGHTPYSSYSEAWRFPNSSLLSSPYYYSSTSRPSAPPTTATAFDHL

[15] = A2780 cell killing – plate reader, dry powder samples, cytotoxicity control, dose response (AID 743046); type: functional, cell-based
[16] = OVCAR-3 cell viability loss – plate reader, dry powder samples, PAX8 inhibitor project, dose response (AID 743044); type: functional, cell-based
[17] = general cell-killing toxicity readout – plate reader, dry powder samples, cytotoxicity control for PAX8 inhibitor project, dose response (AID 743021); type: functional, cell-based
[18] = OVCAR8 cell viability loss – plate reader, dry powder samples, PAX8 project, dose response (AID 743197); type: functional, cell-based; conditions: OVCAR-8
[19] = viability of PTEN-deleted HCT116 cells – cell-based, HCT116 PTEN knockout, dose response (AID 1047); type: functional;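 further: HCT116 colon tumor cells with PTEN knocked out; cells exposed to compound for 60 hours before readout; potency for loss of cell viability measured by luminescence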
[20] = viability of HCT116 lacking mutant beta-catenin – cell-based, human colon tumor, dose response (AID 1045); type: functional;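 further: HCT116 colon tumor cells with beta catenin knocked out; cells exposed to compound for 60 hours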
[21] = Dd2 parasite growth inhibition in erythrocytes – SYBR Green, dry powder samples, set 9, dose response (AID 1159568); type: functional, cell-based

Question: For CCn1c(CSc2n[nH]c(N)n2)nc2cc(C(=O)O)ccc21, which IC50 (Protein skinhead-1) is on record?
Answer: > 100 µM (inactive)

Question: And the AC50 [1]?
Answer: 79 µM (active)

Question: What about the IC50 (Fibrinogen beta chain [2]) of the same molecule?
Answer: 8.92 µM (active)

Question: What about the IC50 (Fibrinogen beta chain [3]) of the same molecule?
Answer: > 83.3 µM (inactive)

Question: Which EC50 [4] does the source give for CN(c1ccccc1)S(=O)(=O)c1ccc(Cl)c(C(=O)Nc2ccc(-c3nc4ccccc4[nH]3)cc2)c1 here?
Answer: 1.68 µM (active)

Question: What about the EC50 [5] of the same molecule?
Answer: > 30 µM (not active)

Question: And the IC50 (Fibrinogen beta chain [2])?
Answer: > 83.3 µM (inactive)

Question: What about the IC50 (Fibrinogen beta chain [3]) of the same molecule?
Answer: > 83.3 µM (inactive)

Question: With COc1ccc(S(=O)(=O)N(C(C)=O)c2ccc(OC(C)=O)c3ccccc23)cc1[N+](=O)[O-] as the molecule, how does the CC50 [6] read?
Answer: 10.7 µM (active)

Question: What about the CC50 [7] of the same molecule?
Answer: > 20 µM (active)

Question: And the AC50 [8]?
Answer: 11.6 µM (active)

Question: What about the AC50 [9] of the same molecule?
Answer: 55.5 µM (active)

Question: And the AC50 [10]?
Answer: 29.1 µM (active)

Question: For COc1ccc(CN(C(=O)c2ccccc2OC)C2CCS(=O)(=O)C2)cc1 (configuration not stated), which Ki (fMet-Leu-Phe receptor) is on record?
Answer: > 66.7 µM (inactive)

Question: Which CC50 [11] does the source give for CC1C(=O)N2CCCc3cc(NC(=O)C(=O)NCc4cccnc4)cc1c32 (configuration not stated) here?
Answer: > 40 µM (active)

Question: With CC(C)Cc1ccc(C(C)C(=N)N)cc1 (configuration not stated) as the molecule, how does the CC50 [11] read?
Answer: > 40 µM (active)

Question: What about the IC50 [12] of the same molecule?
Answer: > 100 µM (active)

Question: Which results are given for CC1(Cc2ccc(C(F)(F)F)o2)C(=O)Nc2cc(-c3ccc(F)cc3F)ccc21 (configuration not stated)?
Answer: IC50 [13]: 15.6 µM (inactive); IC50 [14]: > 69.5 µM (inactive)

Question: With C[C@H]1CCCCO[C@H](CN(C)S(=O)(=O)c2ccccc2)[C@@H](C)CN([C@@H](C)CO)C(=O)c2cc(NS(=O)(=O)c3ccc(Cl)cc3)ccc2O1 as the molecule, how does the AC50 (Paired box protein Pax-8) read?
Answer: 7.4 µM (active)

Question: What about the AC50 [15] of the same molecule?
Answer: 19.1 µM (active)

Question: And the AC50 [16]?
Answer: 58.4 µM (active)

Question: And the AC50 [17]?
Answer: 43.2 µM (active)

Question: And the AC50 [18]?
Answer: > 70 µM (inactive)

Question: For CCN1CCN(C2=C(NS(=O)(=O)c3cccs3)C(=O)c3ccccc3C2=O)CC1, which AC50 [9] is on record?
Answer: > 70 µM (inactive)

Question: What about the AC50 [10] of the same molecule?
Answer: 56.1 µM (active)

Question: With O=S(=O)(N/N=C/c1cn(Cc2ccccc2)c2ccccc12)c1ccccc1 as the molecule, how does the EC50 [19] read?
Answer: 3.27 µM (active)

Question: What about the EC50 [20] of the same molecule?
Answer: 35.6 µM (active)

Question: What about the IC50 [13] of the same molecule?
Answer: 25.1 µM (inactive)

Question: And the IC50 [14]?
Answer: > 69.5 µM (inactive)

Question: Which AC50 [21] does the source give for CN(C)C(=O)c1ccc(-c2ccc([C@@H]3[C@H]4CN(C(=O)CC5CC5)CC(=O)N4[C@H]3CO)cc2)cc1 here?
Answer: 14.4 µM (active)

Question: With Cc1ccccc1-c1ccc2c(c1)O[C@H](CN(C)C(=O)Nc1ccc(C(F)(F)F)cc1)[C@@H](C)CN([C@@H](C)CO)S2(=O)=O as the molecule, how does the AC50 [21] read?
Answer: 5.32 µM (active)
